Among the data in patent US9593149B2, “Amylin and calcitonin receptor agonist” (Novo Nordisk A/S, priority 2014, dated 2017) are Solubility and solubility values, retold here.

The data set can be described thus: Assay (IV) determination of solubility. The class given is physicochemical. The protocol:
Assay (IV)—Determination of Solubility
The mimylin peptide was dissolved in water at ˜500 nmol/ml and mixed 1:1 with a series of buffers (100 mM glycylglycine pH 3.0, 100 mM glycylglycine pH 4.0, 100 mM glycylglycine pH 5.0, 100 mM bistrispropane pH 6.0, 100 mM bistrispropane pH 6.5, 100 mM bistrispropane pH 7.0, 100 mM bistrispropane pH 7.5, 100 mM bistrispropane pH 8.0).

In brackets after ≈: the same amount, converted by molar mass. Numbered stars: 1 amine (or outer) side, 2 acyl side, 3 side chain; on linkers, the order of the positions; unused ones are H or OH. Peptide text beside a SMILES is read from it. * marks the point of attachment. C20 diacid = O=C(O)CCCCCCCCCCCCCCCCCCC(=O)*; C18 diacid = O=C(O)CCCCCCCCCCCCCCCCC(=O)*; γGlu = O=C(O)[C@H](CCC(=O)[*:2])N[*:1]

Take `CC(C)C[C@H](NC(=O)[C@H](CO)NC(=O)[C@H](C)NC(=O)[C@@H](NC(=O)[C@H](CO)NC(=O)[C@H](CC(C)C)NC(=O)[C@H](CCC(=O)O)NC(=O)[C@H](CO)NC(=O)[C@H](C)NC(=O)CC[C@H](NC(=O)CCCCCCCCCCCCCCCCCCC(=O)O)C(=O)O)[C@@H](C)O)C(=O)NCC(=O)N[C@@H](CCCNC(=N)N)C(=O)N[C@@H](CC(C)C)C(=O)N[C@@H](CO)C(=O)N[C@@H](C)C(=O)N[C@@H](CCC(=O)O)C(=O)N[C@@H](CC(C)C)C(=O)N[C@@H](Cc1cnc[nH]1)C(=O)N[C@@H](CCC(=O)O)C(=O)N[C@@H](CC(C)C)C(=O)N[C@@H](C)C(=O)N[C@H](C(=O)N[C@@H](Cc1ccc(O)cc1)C(=O)N1CCC[C@H]1C(=O)N[C@@H](CCCNC(=N)N)C(=O)N[C@H](C(=O)N[C@@H](CCC(=O)O)C(=O)N[C@H](C(=O)NCC(=O)N[C@@H](CO)C(=O)NCC(=O)N[C@@H](CO)C(=O)N[C@@H](Cc1ccc(O)cc1)C(N)=O)[C@@H](C)O)[C@@H](C)O)[C@@H](C)O` [compound 91, [N-terminal(C20 diacid-gGlu), des1, 9S, 23Y, 30S, 31G, 33Y]mimylin] ({C20 diacid-γGlu}-ASELSTASLGRLSAELHELATYPRTETGSGSY-NH2): the Solubility entry runs as follows: (pH 3.0) “≧200 μM”; (pH 6.0) “≧200 μM”; (pH 6.5) “≧200 μM”; (pH 7.0) “≧200 μM”; (pH 7.5) “≧200 μM”; (pH 8.0) “≧200 μM”. For the same compound, the solubility at 18 h worked out at 7 µM (≈ 26.7 µg/mL) (pH 4.0) and 29 µM (≈ 110 µg/mL) (pH 5.0).
`CC[C@H](C)[C@H](NC(=O)[C@H](C)NC(=O)[C@@H](NC(=O)[C@H](CO)NC(=O)[C@@H](NC(=O)[C@H](CCC(=O)O)NC(=O)[C@H](CO)NC(=O)[C@H](C)NC(=O)[C@H](CCC(=O)O)NC(=O)CCCCCCCCCCCCCCCCC(=O)O)[C@@H](C)CC)[C@@H](C)O)C(=O)N[C@H](C(=O)NCC(=O)N[C@@H](CCCNC(=N)N)C(=O)N[C@@H](CC(C)C)C(=O)N[C@@H](CO)C(=O)N[C@@H](C)C(=O)N[C@@H](CCC(=O)O)C(=O)N[C@@H](CC(C)C)C(=O)N[C@@H](Cc1cnc[nH]1)C(=O)N[C@@H](CCC(=O)O)C(=O)N[C@H](C(=O)N[C@@H](C)C(=O)N[C@H](C(=O)N[C@@H](CC(C)C)C(=O)N1CCC[C@H]1C(=O)N[C@@H](CCCNC(=N)N)C(=O)N[C@H](C(=O)N[C@@H](CCC(=O)O)C(=O)N[C@H](C(=O)NCC(=O)N1CCC[C@H]1C(=O)N[C@@H](CCC(=O)O)C(=O)N[C@@H](CO)C(=O)N1CCC[C@H]1C(N)=O)[C@@H](C)O)[C@@H](C)O)[C@@H](C)O)[C@@H](C)CC)[C@@H](C)CC` [compound 77, [N-terminal(C18 diacid), 5I, 9I, 10I, 20I]mimylin] ({C18 diacid}-EASEISTAIIGRLSAELHEIATLPRTETGPESP-NH2): the Solubility result is reported as “≧200 μM” (pH 3.0); “≧200 μM” (pH 6.0); “≧200 μM” (pH 6.5); “≧200 μM” (pH 7.0); “≧200 μM” (pH 7.5); “≧200 μM” (pH 8.0). The solubility at 18 h is, setting by setting: (pH 4.0) 7 µM (≈ 26.4 µg/mL); (pH 5.0) 11 µM (≈ 41.5 µg/mL).
On to `CC(C)C[C@H](NC(=O)CNC(=O)[C@H](CO)NC(=O)[C@H](C)NC(=O)CC[C@H](NC(=O)CCCCCCCCCCCCCCCCCCC(=O)O)C(=O)O)C(=O)N[C@@H](CO)C(=O)N[C@H](C(=O)N[C@@H](C)C(=O)N[C@H](C(=O)N[C@@H](CC(C)C)C(=O)NCC(=O)N[C@@H](CCCNC(=N)N)C(=O)N[C@@H](CC(C)C)C(=O)N[C@@H](CO)C(=O)N[C@@H](CCC(N)=O)C(=O)N[C@@H](CCC(=O)O)C(=O)N[C@@H](CC(C)C)C(=O)N[C@@H](Cc1cnc[nH]1)C(=O)N[C@@H](CCC(=O)O)C(=O)N[C@@H](CC(C)C)C(=O)N[C@@H](CCC(N)=O)C(=O)N[C@H](C(=O)N[C@@H](Cc1ccc(O)cc1)C(=O)N1CCC[C@H]1C(=O)N[C@@H](CCCNC(=N)N)C(=O)N[C@H](C(=O)N[C@@H](CCC(=O)O)C(=O)N[C@H](C(=O)NCC(=O)N[C@@H](CO)C(=O)NCC(=O)N[C@H](C(=O)N[C@@H](Cc1ccc(O)cc1)C(N)=O)[C@@H](C)O)[C@@H](C)O)[C@@H](C)O)[C@@H](C)O)C(C)C)[C@@H](C)O` [compound 118, [N-terminal(C20 diacid-gGlu), des1, 4G, 9V, 15Q, 21Q, 23Y, 30S, 31G, 32T, 33Y]mimylin], for which the Solubility result (pH 3.0) is recorded as “≧200 μM”. Moreover, the solubility at 18 h by setting is: (pH 4.0) 2 µM (≈ 7.75 µg/mL); (pH 5.0) 8 µM (≈ 31 µg/mL); (pH 6.0) 17 µM (≈ 65.9 µg/mL); (pH 6.5) 5 µM (≈ 19.4 µg/mL); (pH 7.0) 26 µM (≈ 101 µg/mL); (pH 7.5) 90 µM (≈ 349 µg/mL). For the setting “pH 8.0”, this compound yielded a solubility at 18 h of 173 µM (≈ 671 µg/mL).
For `CC(C)C[C@H](NC(=O)[C@H](C)NC(=O)[C@H](C)NC(=O)[C@@H](NC(=O)[C@H](Cc1cnc[nH]1)NC(=O)[C@H](CC(C)C)NC(=O)[C@H](CCC(=O)O)NC(=O)[C@H](CO)NC(=O)[C@H](C)NC(=O)[C@H](CCC(=O)O)NC(=O)CCCCCCCCCCCCCCCCC(=O)O)[C@@H](C)O)C(=O)NCC(=O)N[C@@H](CCCNC(=N)N)C(=O)N[C@@H](CC(C)C)C(=O)N[C@@H](CO)C(=O)N[C@@H](C)C(=O)N[C@@H](CCC(=O)O)C(=O)N[C@@H](CC(C)C)C(=O)N[C@@H](Cc1cnc[nH]1)C(=O)N[C@@H](CCC(=O)O)C(=O)N[C@@H](CC(C)C)C(=O)N[C@@H](C)C(=O)N[C@H](C(=O)N[C@@H](CC(C)C)C(=O)N1CCC[C@H]1C(=O)N[C@@H](CCCNC(=N)N)C(=O)N[C@H](C(=O)N[C@@H](CCC(=O)O)C(=O)N[C@H](C(=O)NCC(=O)N1CCC[C@H]1C(=O)N[C@@H](CCC(=O)O)C(=O)N[C@@H](CO)C(=O)N1CCC[C@H]1C(N)=O)[C@@H](C)O)[C@@H](C)O)[C@@H](C)O` [compound 16, [N-terminal(C18 diacid), 6H]mimylin] ({C18 diacid}-EASELHTAALGRLSAELHELATLPRTETGPESP-NH2), the Solubility result reads like this: (pH 3.0) “≧200 μM”; (pH 4.0) “≧200 μM”; (pH 5.0) “≧200 μM”; (pH 6.0) “≧200 μM”; (pH 6.5) “≧200 μM”; (pH 7.0) “≧200 μM”. The Solubility result runs as follows: (pH 7.5) “≧200 μM”; (pH 8.0) “≧200 μM”.
Regarding `CC(C)C[C@H](NC(=O)[C@H](C)NC(=O)[C@H](C)NC(=O)[C@@H](NC(=O)[C@H](CO)NC(=O)[C@H](CC(C)C)NC(=O)[C@H](CCC(=O)O)NC(=O)[C@H](CO)NC(=O)[C@H](C)NC(=O)CC[C@H](NC(=O)CCCCCCCCCCCCCCCCCCC(=O)O)C(=O)O)[C@@H](C)O)C(=O)NCC(=O)N[C@@H](CCCNC(=N)N)C(=O)N[C@@H](CC(C)C)C(=O)N[C@@H](CO)C(=O)N[C@@H](C)C(=O)N[C@@H](CCC(=O)O)C(=O)N[C@@H](CC(C)C)C(=O)N[C@@H](Cc1cnc[nH]1)C(=O)N[C@@H](CCC(=O)O)C(=O)N[C@@H](CC(C)C)C(=O)N[C@@H](C)C(=O)N[C@H](C(=O)N[C@@H](Cc1ccc(O)cc1)C(=O)N1CCC[C@H]1C(=O)N[C@@H](CCCNC(=N)N)C(=O)N[C@H](C(=O)N[C@@H](CCC(=O)O)C(=O)N[C@H](C(=O)NCC(=O)N[C@@H](CO)C(=O)NCC(=O)N[C@@H](CO)C(=O)N[C@@H](Cc1ccc(O)cc1)C(=O)O)[C@@H](C)O)[C@@H](C)O)[C@@H](C)O` [compound 88, [N-terminal(C20 diacid-gGlu), des1, 23Y, 30S, 31G, 33Y, C-terminal(−)]mimylin] ({C20 diacid-γGlu}-ASELSTAALGRLSAELHELATYPRTETGSGSY-OH), the Solubility entry (pH 3.0) is “≧200 μM”; the Solubility result (pH 6.0) is “≧200 μM”; the Solubility entry (pH 6.5) is listed as “≧200 μM”; the Solubility entry (pH 7.0) was “≧200 μM”; the Solubility result (pH 7.5) is recorded as “≧200 μM”; the Solubility entry (pH 8.0) is “≧200 μM”. For the same compound, the solubility at 18 h is, setting by setting: (pH 4.0) 1 µM (≈ 3.79 µg/mL); (pH 5.0) 6 µM (≈ 22.8 µg/mL).
Turning to `CC(C)C[C@H](NC(=O)[C@H](CCC(=O)O)NC(=O)[C@H](C)NC(=O)[C@H](CO)NC(=O)[C@H](CC(C)C)NC(=O)[C@H](CCCNC(=N)N)NC(=O)CNC(=O)[C@H](CC(C)C)NC(=O)[C@@H](NC(=O)[C@H](C)NC(=O)[C@@H](NC(=O)[C@H](CO)NC(=O)[C@H](CC(C)C)NC(=O)[C@H](CCC(=O)O)NC(=O)[C@H](CO)NC(=O)[C@H](C)NC(=O)[C@H](CCC(=O)O)NC(=O)CCCCCCCCCCCCCCCCC(=O)O)[C@@H](C)O)C(C)C)C(=O)N[C@@H](C)C(=O)N[C@@H](CCC(=O)O)C(=O)N[C@@H](CC(C)C)C(=O)N[C@@H](C)C(=O)N[C@H](C(=O)N[C@@H](CC(C)C)C(=O)N1CCC[C@H]1C(=O)N[C@@H](CCCNC(=N)N)C(=O)N[C@H](C(=O)N[C@@H](CCC(=O)O)C(=O)N[C@H](C(=O)NCC(=O)N1CCC[C@H]1C(=O)N[C@@H](CCC(=O)O)C(=O)N[C@@H](CO)C(=O)N1CCC[C@H]1C(N)=O)[C@@H](C)O)[C@@H](C)O)[C@@H](C)O` [compound 33, [N-terminal(C18 diacid), 9V, 18A]mimylin] ({C18 diacid}-EASELSTAVLGRLSAELAELATLPRTETGPESP-NH2), the Solubility result is given as “≧200 μM” (pH 3.0); “≧200 μM” (pH 5.0); “≧200 μM” (pH 6.0); “≧200 μM” (pH 6.5); “≧200 μM” (pH 7.0); “≧200 μM” (pH 7.5). Further, under “pH 8.0”, the Solubility entry was “≧200 μM”. Also, for the setting “pH 4.0”, the solubility at 18 h is given as 1 µM (≈ 3.69 µg/mL).

Usually solubility stands for the dissolved amount per volume that the medium holds.
